Measured values reported in US20230167127A1, “COMPOUNDS AND THEIR USE IN THE TREATMENT OF BACTERIAL INFECTION” (Hoffmann-La Roche Inc., priority 2020, published 2023).
Counter-ions that a name gives are not always drawn. Like-named read-outs stand apart in the source and are kept apart here.

Test system: Escherichia coli ATCC 25922
Assay: 50% growth inhibitory concentration (IC50) determination, Iso-Sensitest broth dilution
Type: cell-based
Conditions: strain Escherichia coli ATCC 25922, 10-point broth dilution, optical density at 600 nm over 16 h, read-out: Escherichia coli growth inhibition IC50
Experimental: 50% Growth Inhibitory Concentration (IC50) Determination
The in vitro antimicrobial activity of the compounds was determined according to the following procedure:
The assay used a 10-point Iso-Sensitest broth dilution method to measure quantitatively the in vitro
ATCC 25922, Acinetobacter baumannii ATCC 17961, Klebsiella pneumoniae ATCC 43816 and Staphylococcus aureus ATCC 29213.
Stock compounds in DMSO were serially twofold diluted (e.g. range from 50 to 0.097 μM final concentration) in 384 wells microtiter plates and inoculated with 50 μL of the bacterial suspension in Iso-
ell of 50 μL/well. Microtiter plates were incubated at 35±2° C.
Bacterial cell growth was determined with the measurement of optical density at λ=600 nm each 20 minutes over a time course of 16 h.
Growth inhibition was calculated during the logarithmic growth of the bacterial cells with
Table 1 provides the 50% growth inhibitory concentrations (IC50) in micromoles per liter of the compounds of present invention obtained against the strain Escherichia coli ATCC 25922.

[1] = Escherichia coli, ATCC25922, 16 h

Row | Structure (SMILES) | IC50 [1] [nM] | IC50 [nM]
1 | N#Cc1cccc2c1CC(CN1CCC3(CC1)CN(c1cnc4c(n1)NC(=O)CO4)C(=O)O3)C2 (stereo not shown) [Example 261, 2-[[2-Oxo-3-(3-oxo-4H-pyrazino[2,3-b][1,4]oxazin-6-yl)-1-oxa-3,8-diazaspiro[4.5]decan-8-yl]methyl]-2,3-dihydro-1H-indene-4-carbonitrile; formic acid] | < 97.7 | 
2 | N#Cc1cccc2c1CC(CN1CCC3(CC1)CN(c1ccc4c(n1)NC(=O)CO4)C(=O)O3)C2 (stereo not shown) [Example 28, 2-[ [2-oxo-3-(3-oxo-4H-pyrido[3,2-b] [1,4]oxazin-6-yl)-1-oxa-3,8-diazaspiro[4.5]decan-8-yl]methyl]-2,3-dihydro-1H-indene-4-carbonitrile] | < 97.7 | 
3 | Cc1ncc(F)c2c1CC(CNCCC1CC(=O)N(c3ccc4c(n3)NC(=O)CO4)C1)C2 (stereo not shown) [Example 417, 6-[4-[2-[(4-Fluoro-1-methyl-6,7-dihydro-5H-cyclopenta[c]pyridin-6-yl)methylamino]ethyl]-2-oxopyrrolidin-1-yl]-4H-pyrido[3,2-b][1,4]oxazin-3-one] | < 97.7 | 
4 | NC1(CNCCC2CN(c3ccc4c(n3)NC(=O)CO4)C(=O)O2)Cc2cccc(Cl)c2C1 (stereo not shown) [Example 240, 6-[5-[2-[(2-Amino-4-chloro-1,3-dihydroinden-2-yl)methylamino]ethyl]-2-oxo-1,3-oxazolidin-3-yl]-4H-pyrido[3,2-b][1,4]oxazin-3-one; formic acid] | 278 | 
5 | CS(=O)(=O)NCCOc1cc(C#N)c2c(c1)CC(CNCCC1CN(c3ccc4c(n3)NC(=O)CO4)C(=O)O1)C2 (stereo not shown) [Example 115, N-[2-[[7-cyano-2-[[2-[2-oxo-3-(3-oxo-4H-pyrido[3,2-b][1,4]oxazin-6-yl)-1,3-oxazolidin-5-yl]ethylamino]methyl]-2,3-dihydro-1H-inden-5-yl]oxy]ethyl]methanesulfonamide] | 261 | 
6 | Cc1ncc(F)c2c1CC(CN1CCC3(CN(c4ccc5c(n4)NC(=O)CO5)C(=O)O3)C(CO)C1)C2 (stereo not shown) [Example 277, 6-[8-[(4-fluoro-1-methyl-6,7-dihydro-5H-cyclopenta[c]pyridin-6-yl)methyl]-6-(hydroxymethyl)-2-oxo-1-oxa-3,8-diazaspiro[4.5]decan-3-yl]-4H-pyrido[3,2-b][1,4]oxazin-3-one] | 628 | 
7 | Cc1ccnc2c1CC(CNCCC1CN(c3ccc4c(n3)NC(=O)CO4)C(=O)O1)C2 (stereo not shown) [Example 89, 6-[5-[2-[(4-methyl-6,7-dihydro-5H-cyclopenta[b]pyridin-6-yl)methylamino]ethyl]-2-oxo-1,3-oxazolidin-3-yl]-4H-pyrido[3,2-b][1,4]oxazin-3-one] | 304 | 
8 | NC1(CCNCC2CN(c3ccc4c(n3)NC(=O)CO4)C(=O)O2)Cc2cccc(Cl)c2C1 (stereo not shown) [Example 142, 6-[5-[[2-(2-amino-4-chloro-1,3-dihydroinden-2-yl)ethylamino]methyl]-2-oxo-1,3-oxazolidin-3-yl]-4H-pyrido[3,2-b][1,4]oxazin-3-one; formic acid] | < 97.7 | 
9 | CCNC(=O)COc1cc(F)c2c(c1)CC(CNCCC1CN(c3cnc4c(n3)NC(=O)CO4)C(=O)O1)C2 (stereo not shown) [Example 308, N-ethyl-2-[[7-fluoro-2-[[2-[2-oxo-3-(3-oxo-4H-pyrazino[2,3-b][1,4]oxazin-6-yl)-1,3-oxazolidin-5-yl]ethylamino]methyl]-2,3-dihydro-1H-inden-5-yl]oxy]acetamide; formic acid] | 471 | 
10 | CC(N)COc1ccc2c(c1C#N)CC(CNCCC1CN(c3ccc4c(n3)NC(=O)CO4)C(=O)O1)C2 (stereo not shown) [Example 134, 5-(2-aminopropoxy)-2-[[2-[2-oxo-3-(3-oxo-4H-pyrido[3,2-b][1,4]oxazin-6-yl)-1,3-oxazolidin-5-yl]ethylamino]methyl]-2,3-dihydro-1H-indene-4-carbonitrile; formic acid] | 114 | 
11 | NC(=O)COc1cc(F)c2c(c1)CC(CNCC[C@H]1CN(c3cnc4c(n3)NC(=O)CO4)C(=O)O1)C2 (single isomer, unassigned; isomer a) [Example 379] | < 97.7 | 
12 | N#Cc1cccc2c1CC(NCC(O)CC1CN(c3cnc4c(n3)NC(=O)CO4)C(=O)O1)C2 (single isomer, unassigned; isomer b) [Example 82, 2-[[2-hydroxy-3-[2-oxo-3-(3-oxo-4H-pyrazino[2,3-b][1,4]oxazin-6-yl)-1,3-oxazolidin-5-yl]propyl]amino]-2,3-dihydro-1H-indene-4-carbonitrile, Isomer B; formic acid] |  | 152
13 | Cc1ncc(F)c2c1C[C@@H](CNCC[C@H]1CN(c3cnc4c(n3)NC(=O)CO4)C(=O)O1)C2 [Example 428, 6-[(5S)-5-[2-[[(6R)-4-fluoro-1-methyl-6,7-dihydro-5H-cyclopenta[c]pyridin-6-yl]methylamino]ethyl]-2-oxo-1,3-oxazolidin-3-yl]-4H-pyrazino[2,3-b][1,4]oxazin-3-one] | < 97.7 | 
14 | Cc1nc(C#N)c2c(c1F)CC(CNCCC1CN(c3cnc4c(n3)NC(=O)CO4)C(=O)O1)C2 (stereo not shown) [Example 363, 4-fluoro-3-methyl-6-[[2-[2-oxo-3-(3-oxo-4H-pyrazino[2,3-b][1,4]oxazin-6-yl)-1,3-oxazolidin-5-yl]ethylamino]methyl]-6,7-dihydro-5H-cyclopenta[c]pyridine-1-carbonitrile; formic acid] | < 97.7 | 
15 | Cc1cc(OCC2(N)CC2)c(C)c2c1CC(CNCCC1CN(c3cnc4c(n3)NC(=O)CO4)C(=O)O1)C2 (stereo not shown) [Example 253, 6-[5-[2-[[5-[(1-Aminocyclopropyl)methoxy]-4,7-dimethyl-2,3-dihydro-1H-inden-2-yl]methylamino]ethyl]-2-oxo-1,3-oxazolidin-3-yl]-4H-pyrazino[2,3-b][1,4]oxazin-3-one; formic acid] | < 97.7 | 
16 | Cc1ncc(F)c2c1CC(NC(C)CCC1CN(c3cnc4c(n3)NC(=O)CO4)C(=O)O1)C2 (single isomer, unassigned; isomer a) [Example 333, 6-[5-[3-[(4-fluoro-1-methy1-6,7-dihydro-5H-cyclopenta[c]pyridin-6-yl)amino]butyl]-2-oxo-1,3-oxazolidin-3-yl]-4H-pyrazino[2,3-b][1,4]oxazin-3-one, Isomer A] | 265 | 
17 | COc1cc2c(c(Cl)n1)CC(CNCCC1CN(c3ccc4c(n3)NC(=O)CO4)C(=O)O1)C2 (stereo not shown) [Example 49, 6-[5-[2-[(1-chloro-3-methoxy-6,7-dihydro-5H-cyclopenta[c]pyridin-6-yl)methylamino]ethyl]-2-oxo-1,3-oxazolidin-3-yl]-4H-pyrido[3,2-b][1,4]oxazin-3-one] | 193 | 
18 | N#Cc1cccc2c1CC(CNCCC1CN(c3ccc4c(n3)NC(=O)CO4)C(=O)O1)C2O (racemic) [Example 139, rac-1,2-trans-1-hydroxy-2-[[2-[2-oxo-3-(3-oxo-4H-pyrido[3,2-b][1,4]oxazin-6-yl)-1,3-oxazolidin-5-yl]ethylamino]methyl]-2,3-dihydro-1H-indene-4-carbonitrile] | 513 | 
19 | Cc1ncc(F)c2c1CC(N(C)CCCc1cn(-c3cnc4c(n3)NC(=O)CO4)c(=O)o1)C2 (stereo not shown) [Example 303, 6-[5-[3-[(4-Fluoro-1-methyl-6,7-dihydro-5H-cyclopenta[c]pyridin-6-yl)-methylamino]propyl]-2-oxo-1,3-oxazol-3-yl]-4H-pyrazino[2,3-b][1,4]oxazin-3-one; formic acid] | 163 | 
20 | O=C1COc2ccc(N3CC(CCCNC4Cc5ccc(F)cc5C4)OC3=O)nc2N1 (stereo not shown) [Example 12, 6-[5-[3-[(5-fluoro-2,3-dihydro-1H-inden-2-yl)amino]propyl]-2-oxo-1,3-oxazolidin-3-yl]-4H-pyrido[3,2-b][1,4]oxazin-3-one; formic acid] | 471 | 
21 | N#Cc1cccc2c1CC(CN[C@H]1C[C@@H](C3CN(c4ccc5c(n4)NC(=O)CO5)C(=O)O3)C1)C2 (stereo partly drawn) [Example 96, 2-[[[cis-3-[2-oxo-3-(3-oxo-4H-pyrido[3,2-b][1,4]oxazin-6-yl)-1,3-oxazolidin-5-yl]cyclobutyl]amino]methyl]-2,3-dihydro-1H-indene-4-carbonitrile; formic acid] | 187 | 
22 | NC1c2cccc(Cl)c2CC1CNCCC1CN(c2ccc3c(n2)NC(=O)CO3)C(=O)O1 (racemic) [Example 226, 6-[2-Oxo-5-[2-[[rac-1,2-trans-1-amino-4-chloro-2,3-dihydro-1H-inden-2-yl]methylamino]ethyl]-1,3-oxazolidin-3-yl]-4H-pyrido[3,2-b][1,4]oxazin-3-one] | < 97.7 | 
23 | Cc1nc(OCC2CNC2)c(C)c2c1CC(CNCCC1CN(c3ccc4c(n3)NC(=O)CO4)C(=O)O1)C2 (stereo not shown) [Example 184, 6-[5-[2-[[3-(azetidin-3-ylmethoxy)-1,4-dimethyl-6,7-dihydro-5H-cyclopenta[c]pyridin-6-yl]methylamino]ethyl]-2-oxo-1,3-oxazolidin-3-yl]-4H-pyrido[3,2-b][1,4]oxazin-3-one hydrochloride] | 425 | 
24 | Cc1ncc(C#N)c2c1CC(NCCCc1cn(-c3cnc4c(n3)NC(=O)CO4)c(=O)o1)C2 (single isomer, unassigned; enantiomer b) [Example 322, 1-Methyl-6-[3-[2-oxo-3-(3-oxo-4H-pyrazino[2,3-b][1,4]oxazin-6-yl)-1,3-oxazol-5-yl]propylamino]-6,7-dihydro-5H-cyclopenta[c]pyridine-4-carbonitrile, Enantiomer B] |  | < 97.7
25 | NC1c2cccc(Cl)c2CC1CNCCCC1CN(c2ccc3c(n2)NC(=O)CO3)C(=O)O1 (racemic) [Example 227, 6-[2-Oxo-5-[3-[[rac-1,2-trans-1-amino-4-chloro-2,3-dihydro-1H-inden-2-yl]methylamino]propyl]-1,3-oxazolidin-3-yl]-4H-pyrido[3,2-b][1,4]oxazin-3-one] | 132 | 
